# Laboratory results as given in US6861426B2, “Crystal forms of lamotrigine and processes for their preparations” (Teva Pharmaceutical Industries Ltd., priority 2001, dated 2005).
# Test: Heating of Lamotrigine Solvates/Hydrates (annealing; crystal form afterwards)
# Format: physicochemical
# Details: resulting crystal form
# Experimental: All X-ray powder diffraction patterns were obtained by methods known in the art. One method employs the use of a Philips X-Ray powder diffractometer, Goniometer model 1050/70 at a scanning speed of 20 per minute. Another method employs the use of a Scintag X'TRA X-ray powder diffractometer, equipped with a solid state Si(Li) detector thermoelectrically cooled, at a scanning speed of 30 min.^−1 Scanning range […] two-theta. Copper radiation of 1.5418 Å was used. According to one embodiment, the present invention provides a process for preparing lamotrigine form A including heating lamotrigine solvates at temperatures elevated enough to remove all the solvent from the crystal, usually above 100° C. for a period of about 2 hours, preferably above 110° C. for a period of about 1 hour, more preferably at about 150° C. for a period of about ½ hour. [table]
smiles,measurement,setting,value
"Nc1nnc(-c2cccc(Cl)c2Cl)c(N)n1 [C DMF monosolvate, 6-(2,3-Dichlorophenyl)-1,2,4-triazine-3,5-diamine]",Crystal form after annealing at 110° C. 45 min,solid heated at 110° C. for 45 min,A + P
"Nc1nnc(-c2cccc(Cl)c2Cl)c(N)n1 [J ispropanolate, 6-(2,3-Dichlorophenyl)-1,2,4-triazine-3,5-diamine]",Crystal form after annealing at 80° C. 60 min,solid heated at 80° C. for 60 min,Amorphous
